Measured values: patent publication US20110021471A1, “REDUCING Abeta42 LEVELS AND Abeta AGGREGATION” (priority 2007, published 2011)
Where two headings read alike, the source gives them in different places.

Assays:
Tg2576 mice = experiment: Acute oral dosing of Tg2576 mice, brain soluble Aβ after 4 hours; type: in vivo, mouse
Method: FIG. 2. Aβ modulating agents can inhibit Aβ aggregation, and agents that bind Aβ amyloid can modulate Aβ42 production. […] (C) Aβ42 modulating agents inhibit naturally secreted oligomer formation. 7PA2 cells were treated with fenofibrate, FT-1, or FT-9 at 50 μM and oligomers assessed by IP Western blotting. […] (D) FT-9, an Aβ42 reducing agent, can inhibit Aβ42 aggregation in vitro.
FIG. 13. Compounds that bind Aβ are GSMs in vitro and in vivo. (A) A cell-based screen of Aβ-binders identified molecules that increase Aβ42 (DAPH) or decrease Aβ42 (Bis-ANS, X-34 or chrysamine G (CG)). Data are mean±s.e.m., n=3. (B) X-34 is an Aβ42-lowering GSM. Changes in amyloid-β peptide amounts after X-34 treatment are shown. Data are presented as percentage control±s.e.m., n=3. EC50 values were calculated. […] NA, not applicable. (C) X-34 binds to APP(C100)-Flag and decreases labeling by GSM photoprobes. Biotin incorporation into APP by Fen-B and Flurbi-BpB is presented as percentage of control (peptide without X-34)±s.e.m., n=2. (D) X-34 lowers Aβ42 in Tg2576 mice after 4 h. […] Data are presented as amyloid-β percentage of control relative to vehicle±s.e.m. Animals per group (n). Asterisk, P,0.05; two asterisks, P,0.01; ANOVA with Dunnett's post-hoc analysis.
(§1) Finally, X-34 was tested for its ability to modulate Aβ42 amounts in an APP transgenic mouse (Tg2576).

APP-NOTCH TMD cells = experiment: Aβ modulation in APP-NOTCH TMD cells; type: cell-based, human; parameters: Aβ42 signal (percentage of control) / Aβ40 signal (percentage of control): dose or concentration left out as unconfirmed
Method: (§2) (A) and (B) The sequences of wildtype (WT; A) APP and the mutated substrate (B) containing the homologous region (italic, underlined) of the NOTCH transmembrane domain (TMD) in APP where GSMs are hypothesized to bind. […] Bottom row, FT-1 ([…]) raised Aβ42 200% in APP wild-type cells (A); however, in APP-NOTCH TMD cells (B), FT-1 caused minimal changes in the Aβ42 (95%) or Aβ40 (90%) signal. Data are presented as amyloid-β percentage of control±s.e.m., n=3.
(§3) FIG. 19. Substitution of human Notch sequence in the APP transmembrane domain (TMD) changes sensitivity to modulation. (A) Site-directed mutagenesis was used to exchange the analogous region of the human Notch TMD (bold and underlined) for a section (bold and underlined) of wild-type APP (APPwt) we have shown to be labeled by GSMs. The new substrate (APP-Notch TMD) is cleaved by γ-secretase primarily after valine and alanine residues corresponding to 40 and 42 in APPwt (arrows). […] The beginning (1) N-terminal amino acid (AA) to the ending C-terminal AA is shown above each peak, with the molecular weight (m/z) below. 1-40 and 1-42 are detected as the two major species in APP-Notch TMD conditioned media. It should be noted that the mutagenesis strategy to create APPNotch TMD led to a single AA deletion relative to APPwt. The correct change in molecular weight caused by the introduced mutations were confirmed by the mass spectrum. For simplicity the peptides are referenced by their C-terminal residues relative to Aβ (40, 42, etc). Representative mass spectra are shown from multiple IP reactions (3) and duplicate spots. […] Both cell lines were treated (6 hours) with L-685,458 (10 μM), which is hypothesized to target the active site aspartate residues, media was collected, and analyzed for changes in Aβ levels. The 40 and 42 Aβ reactive species from both cell lines were inhibited by L-685,458 with equal sensitivity (no significant difference; 40 p>0.5; 42 p>0.4; t test; n=3).
To test the hypothesis that mutation of the GSM binding site in APP should alter sensitivity to GSMs, a portion of the GSM binding site in APP was exchanged with the analogous region of human NOTCH (FIGS. 18A and 18B; FIG. 19). The chimeric construct was used because the NOTCH transmembrane domain (TMD) appears resistant to GSM effects. The APP NOTCH TMD construct produced a spectrum of chimeric amyloid-β species in conditioned cell media (FIG. 19). Although the molecular weight and abundance of each chimeric peptide differed from amyloid-β peptides from APP, the main species produced from the APP-NOTCH TMD construct had identical C-termini to Ab1-40 and Ab1-42, and could be quantified by enzyme-linked immunosorbent assays (ELISAs; FIG. 19). The relative sensitivity to GSMs of APP-NOTCH TMD versus APP was assayed in stably transfected cells. […]

[1] = test system: 7PA2 cells (CHO cells stably expressing human APP751 V717F); experiment: 7PA2 cells: Aβ oligomers (IP/western) and Aβ ELISA; type: cell-based, Chinese hamster
Method: FIG. 17. γ-secretase modulators decrease the production of cell derived Aβ oligomers. CHO cells stably expressing human APP751 containing the familial Alzheimer's disease mutation V717F (referred to as 7PA2 cells) were incubated for ˜16 hours in the presence of GSMs. […] Aβ40 levels were decreased to varying degrees (26-35%; Li-Cor Odyssey). (B) and (C) Because the extended incubation times necessary to reliably detect Aβ oligomers in this assay can be toxic, we carried out additional dose response studies with fenofibrate and FT-9 to verify that decreases in Aβ oligomers levels were not related to toxicity or global inhibition of Aβ production. […] (C) Increasing doses of FT-9 reduced the detection of Aβ oligomeric bands and Aβ42 decreased preferentially with decreases in Aβ40 at higher doses. […] Aβ species present in conditioned medium were detected by IP using the polyclonal anti-Aβ antibody, DW6 and subsequent immunoblotting with either 6E10 or the 42-specific, anti-Aβ antibody 21F12. Aβ levels in the samples analyzed via IP/western were also quantified via sandwich ELISA. Data presented as percent vehicle control±s.e.m., n=2.
To address the question of whether GSMs influence the concentration of secreted amyloid-β oligomers, such as those released by Chinese hamster ovary (CHO) cells expressing the APP V717F mutation (referred to as 7PA2 cells), which alter long-term potentiation and perturb the memory of learned behavior when injected into rat brain, 7PA2 cells were treated with two Aβ42-raising GSMs and a novel Aβ42-lowering GSM (FIG. 17) (Walsh et al., Nature 416:535:539 (2002); Calabrese et al., Mol. Cell. Neurosci. 35:183-193 (2007)). Fenofibrate and FT-1 increased amounts of Aβ42 whereas FT-9 lowered Aβ42, but all three GSMs decreased amounts of amyloid-β dimers and trimers. […] In contrast to increased amyloid-β oligomer formation, when CHO cells are genetically manipulated to increase Aβ42 production by co-expression of APP and FAD-linked mutant PSEN1 proteins, both Aβ42-lowering and -raising GSMs decreased oligomer formation (Xia et al., J. Biol. Chem. 272: 7977-7982 (1997)).

APP wild-type cells = experiment: Aβ modulation in APP wild-type cells; type: cell-based; parameters: Aβ42 raised: dose or concentration left out as unconfirmed
Method: as §2
as §3, with “APPwt.” for “APPwt. The correct change in molecular weight caused by the introduced mutations were confirmed by the mass spectrum. For simplicity the peptides are referenced by their C-terminal residues relative to Aβ (40, 42, etc). Representative mass spectra are shown from multiple IP reactions (3) and duplicate spots.”, “The 40 and 42 Aβ reactive species from both cell lines were inhibited by L-685,458 with equal sensitivity (no significant difference; 40 p>0.5; 42 p>0.4; t test; n=3).” left out
To test the hypothesis that mutation of the GSM binding site in APP should alter sensitivity to GSMs, a portion of the GSM binding site in APP was exchanged with the analogous region of human NOTCH (FIGS. 18A and 18B; FIG. 19). […] Although the molecular weight and abundance of each chimeric peptide differed from amyloid-β peptides from APP, the main species produced from the APP-NOTCH TMD construct had identical C-termini to Ab1-40 and Ab1-42, and could be quantified by enzyme-linked immunosorbent assays (ELISAs; FIG. 19). […]

human H4 cells = experiment: Steroid compounds, Aβ42 levels in human H4 cells (FIG. 2, FIG. 21); type: cell-based
Description: FIG. 21 contains the results of an in vitro assay, studying the effects of various steroid compounds on Aβ42 levels in human H4 cells. Chemical names and molecular weights of each steroid are presented.
Agents having the ability to modulate Aβ42 levels were identified as follows. […] It was hypothesized that it might be possible to convert Aβ42 increasing agents into Aβ42 reducing agents by incorporating an acidic group into the core structure. For steroids, multiple steroids containing an acidic group were obtained from Steraloids Inc. and screened for the ability to reduce Aβ42 levels.

H4Bri-C99 (CTF-3) = conditions: 6 hours
Method: FIG. 6. […] Parent GSMs and biotin tagged photoactivatable GSMs were evaluated for their effects on Aβ secreted from H4Bri-C99 (CTF-3). Cells were treated with compounds for 6 hours and Aβ measured by ELISA. […] Changes in Aβ (percent control)±s.e.m., n=3.
Photoaffinity labelling. All experiments used the following general protocol. Samples (recombinant or synthetic peptides, cell lysates and membrane preparations) were exposed in borosilicate test tubes to ultraviolet light (350 nm) in a Rayonet Photoreactor R100 (RPR-3500 lamps, Southern New England Ultra Violet Company) in a cold room (4° C.) for 30 minutes or as otherwise noted. Crosslinked samples were analyzed by ELISA for biotin incorporation, or analyzed directly by SDS-PAGE (Criterion-XT, Bio-Rad), or after precipitation with streptavidin ultralink plus beads (Pierce). After immunblotting, proteins were detected using chemiluminesence (ECL Plus, GEHealthcare) or near-infrared fluorescence (LiCor Odyssey). Full-length APP and APP CTFs (CTF83, CTF99) were detected with CT20, a rabbit polyclonal antibody against the C-terminus of APP. Biotin was detected with an affinity-purified rabbit polyclonal antibody (Bethyl). Cell-based screens for amyloid-β modulation. Human H4 neuroglioma cells (American Type Culture Collection, ATCC) expressing wild-type APP695 protein or CTF105 fused to secreted alkaline phosphatase which is efficiently processed to APP CTFs (CTF83, CTF99) and produce high levels of amyloid-β, were used for the cell-based screens as previously described. Cells were incubated for 5-6 hours in the presence of the various compounds in Opti-Mem culture medium containing 1% fetal bovine serum. Compounds were dissolved in dimethylsulphoxide (DMSO; 0.5% final concentration) and diluted 200-fold. Media was analyzed for various amyloid-β species (40, 42 and total) using ELISAs as described herein. The EC50 values for changes in amyloid-β species were calculated by fitting sigmoid dose-response curves using nonlinear regression in Prism (GraphPad) and are shown as values±s.e.m. Statistical analysis. Data are presented as either percentage control or mean±s.e.m. Results were analyzed using Prism (Graph Pad) with t-tests or one-way analysis of variance analyses (ANOVAs) with Dunnett's post-hoc correction for comparison of multiple samples to a control. Statistical significance is shown as P,0.05 (one asterisk), P,0.01 (two asterisks) or P,0.001 (three asterisks).

γ-secretase = γ-secretase (Homo sapiens, UniProt P49768); experiment: GSM activity of compounds that bind Aβ or Aβ amyloid (cell-based or cell-free γ-secretase assays, FIG. 12); conditions: two doses (10 and 100 μM)
Method: A literature search was performed to identify compounds reported to bind to the Aβ peptide directly or amyloid. These candidates were initially tested in cell-based assays or cell-free in vitro γ-secretase assays at two doses (10 and 100 μM).
as §1

[2] = test system: Human H4 neuroglioma cells expressing wild-type APP695 protein or CTF105; experiment: Cell-based screens for amyloid-β modulation (H4 cells, ELISA); conditions: H4 cells expressing APP
Description: Photoaffinity labelling. All experiments used the following general protocol. […] Cell-based screens for amyloid-β modulation. […] Statistical analysis.

[3] = FT-9 and FT-1 20 μM, fenofibrate 100 μM, ~16 hours

C[C@H](NC(=O)[C@@H](O)c1cc(F)cc(F)c1)C(=O)N[C@@H]1C(=O)N(C)c2ccccc2-c2ccccc21 [LY-411575]
selectivity of Aβ reduction (Aβ42 vs Aβ40) (Tg2576 mice; Tg2576, oral gavage, 4 hours): reduces Aβ40 preferentially

CC(C#N)c1ccc([N+](=O)[O-])c(Oc2cc(Cl)cc(Cl)c2)c1 (centres unmarked) [FT-1, 2-(3-(3,5-dichlorophenoxy)-4-nitrophenyl)propanenitrile]
Aβ40 signal (percentage of control) (APP-NOTCH TMD cells; APP-NOTCH TMD cells): 90%
Aβ42 signal (percentage of control) (APP-NOTCH TMD cells; APP-NOTCH TMD cells): 95%
naturally secreted oligomer formation ([1]; 50 μM, IP Western blotting): inhibit oligomer formation
Aβ42 production in 7PA2 cells [1, 3]: increase production of Aβ42
dimeric and trimeric Aβ species [1, 3]: reduce production of dimeric and trimeric Aβ species
Aβ42 raised (APP wild-type cells; APP wild-type cells): 200%

C[C@H](CCC(=O)O)[C@H]1CC[C@H]2[C@@H]3CC[C@@H]4CCCC[C@]4(C)[C@H]3CC[C@]12C [5β-cholanic acid]
Aβ42 levels (acidic steroids) (human H4 cells): one of the more potent Aβ42 reducing agents
Aβ42 levels (acidic steroids) (human H4 cells; listed as 5-β-cholanic acid): most potent Aβ42 lowering GSM
Aβ42 levels (acidic steroids) (human H4 cells; listed as 5β-Cholanic acid): potently reduces Aβ42

C[C@@H](C(=O)O)c1ccc(-c2ccccc2)c(F)c1 [Tarenflurbil]
Aβ42 (direction of change) (H4Bri-C99 (CTF-3)): lowered Aβ42
total Aβ levels (H4Bri-C99 (CTF-3)): without decreasing total Aβ levels
lowering of Aβ42 in the brains (Tg2576 mice; 50 mg kg21, Tg2576 mice, 4 h): 25%

O=C1NC(=O)c2cc(Nc3ccccc3)c(Nc3ccccc3)cc21 [DAPH, 4,5-dianilinophthalimide]
GSM activity (γ-secretase): Aβ42-raising
Aβ42 levels [2]: selectively increase

C[C@H](CCC(=O)O)[C@H]1CC[C@H]2[C@@H]3[C@H](O)C[C@@H]4C[C@H](O)CC[C@]4(C)[C@H]3CC[C@]12C [5β cholanic acid 3a, 7a diol]
Aβ42 levels (acidic steroids) (human H4 cells): does not

CC(C)C[C@H](NC(=O)[C@H](Cc1ccccc1)C[C@@H](O)[C@H](Cc1ccccc1)NC(=O)OC(C)(C)C)C(=O)N[C@@H](Cc1ccccc1)C(N)=O [L-685,458]
40 and 42 Aβ reactive species (APP-NOTCH TMD cells; 10 μM, 6 hours, APP-Notch TMD): inhibited
40 and 42 Aβ reactive species (APP wild-type cells; 10 μM, 6 hours, APPwt): inhibited

O=S(=O)(O)c1cccc2c(-c3ccc(Nc4ccccc4)c4c(S(=O)(=O)O)cccc34)ccc(Nc3ccccc3)c12 [Bis-ANS, 4,49-dianilino-1,19-binaphthyl-5,59-disulphonic acid]
GSM activity (γ-secretase): Aβ42-lowering
Aβ42 levels [2]: decrease
